From ChEMBL document CHEMBL1139296, “Pleuromutilin derivatives having a purine ring. Part 2: influence of the central spacer on the antibacterial activity against Gram-positive pathogens” (2009)

What was measured:
Type in all cases: functional
Streptococcus pneumoniae [1] = assay: Antimicrobial activity against penicillin-resistant Streptococcus pneumoniae KT2524 by NCCLS method
Staphylococcus aureus [2] = assay: Antimicrobial activity against methicillin-resistant Staphylococcus aureus KMP9
Staphylococcus aureus [3] = assay: Antimicrobial activity against methicillin-susceptible Staphylococcus aureus infected mouse assessed as survival rate administered iv after 1 hr of infection
Staphylococcus aureus [4] = assay: Antimicrobial activity against methicillin-susceptible Staphylococcus aureus Smith by NCCLS method
Streptococcus pyogenes = assay: Antimicrobial activity against Streptococcus pyogenes […] by NCCLS method
Moraxella catarrhalis = assay: Antimicrobial activity against Moraxella catarrhalis K1209 by NCCLS method
Enterococcus faecium = assay: Antimicrobial activity against vancomycin-resistant Enterococcus faecium KU1778 by NCCLS method
Haemophilus influenzae = assay: Antimicrobial activity against Haemophilus influenzae TH13 by NCCLS method
Streptococcus pneumoniae [5] = assay: Antimicrobial activity against penicillin-susceptible Streptococcus pneumoniae ATCC 49619 by NCCLS method

Row | Structure (SMILES) | MIC (Streptococcus pneumoniae [1]) [mg/L] | MIC (Staphylococcus aureus [2]) [mg/L] | ED50 (Staphylococcus aureus [3]) [mg/kg] | MIC (Staphylococcus aureus [4]) [mg/L] | MIC (Streptococcus pyogenes) [mg/L] | MIC (Moraxella catarrhalis) [mg/L] | MIC (Enterococcus faecium) [mg/L] | MIC (Haemophilus influenzae) [mg/L] | MIC (Streptococcus pneumoniae [5]) [mg/L]
1 | C=C[C@]1(C)C[C@@H](OC(=O)CSCCN(C)C(=O)CCn2cnc3c(N4CCC(N)C4)ncnc32)[C@]2(C)[C@H](C)CC[C@]3(CCC(=O)[C@@H]32)[C@@H](C)[C@@H]1O.Cl (stereo partly specified) | 0.016 | 0.5 | 1.76 | 0.25 | ≤ 0.004 | 0.125 | 0.063 | 2 | 0.016
2 | C=C[C@]1(C)C[C@@H](OC(=O)CS[C@H]2CCN(C(=O)CCn3cnc4c(N5CCNCC5)nc(N)nc43)C2)[C@]2(C)[C@H](C)CC[C@]3(CCC(=O)[C@@H]32)[C@@H](C)[C@@H]1O.Cl | 0.125 | 1 | 3.16 | 0.5 | 0.016 | 0.25 | 0.25 | 2 | 0.063
3 | C=C[C@]1(C)C[C@@H](OC(=O)CSC2CCN(C(=O)CCn3cnc4c(N5CCNCC5)nc(N)nc43)CC2)[C@]2(C)[C@H](C)CC[C@]3(CCC(=O)[C@@H]32)[C@@H](C)[C@@H]1O.Cl | 0.063 | 0.5 | 1.86 | 0.25 | 0.032 | 0.25 | 0.125 | 1 | 0.063
4 | C=C[C@]1(C)C[C@@H](OC(=O)CSC2CCN(C(=O)CCn3cnc4c(N5CCNCC5)nc(N)nc43)C2)[C@]2(C)[C@H](C)CC[C@]3(CCC(=O)[C@@H]32)[C@@H](C)[C@@H]1O.Cl (stereo partly specified) | 0.125 | 1 | 2.61 | 0.25 | ≤ 0.004 | 0.125 | 0.25 | 1 | 0.063
5 | C=C[C@]1(C)C[C@@H](OC(=O)CSCCCN(C)C(=O)CCn2cnc3c(N4CCC(N)C4)ncnc32)[C@]2(C)[C@H](C)CC[C@]3(CCC(=O)[C@@H]32)[C@@H](C)[C@@H]1O.Cl (stereo partly specified) | 0.016 | 0.25 | 0.86 | 0.125 | 0.008 | 0.063 | 0.063 | 1 | 0.016
6 | C=C[C@]1(C)C[C@@H](OC(=O)CNC2CCN(C(=O)CCn3cnc4c(N5CCC(N)C5)ncnc43)CC2)[C@]2(C)[C@H](C)CC[C@]3(CCC(=O)[C@@H]32)[C@@H](C)[C@@H]1O.Cl (stereo partly specified) | 0.125 | 2 | 1.75 | 0.25 | 0.063 | 0.25 | 0.5 | 2 | 0.125
7 | C=C[C@]1(C)C[C@@H](OC(=O)CSCC2CN(C(=O)CCn3cnc4c(N5CCNCC5)nc(N)nc43)CCO2)[C@]2(C)[C@H](C)CC[C@]3(CCC(=O)[C@@H]32)[C@@H](C)[C@@H]1O.Cl (stereo partly specified) | 0.125 | 2 | 4.81 | 1 | 0.032 | 0.25 | 0.5 | 8 | 0.063
8 | C=C[C@]1(C)C[C@@H](OC(=O)CSC2CCN(C(=O)CCn3cnc4c(N5CCC(N)C5)ncnc43)CC2)[C@]2(C)[C@H](C)CC[C@]3(CCC(=O)[C@@H]32)[C@@H](C)[C@@H]1O.Cl (stereo partly specified) | 0.032 | 0.125 | 1.47 | 0.063 | 0.016 | 0.032 | 0.032 | 1 | 0.016
9 | C=C[C@]1(C)C[C@@H](OC(=O)CN2CCN(C(=O)CCn3cnc4c(N5CCC(N)C5)ncnc43)CC2)[C@]2(C)[C@H](C)CC[C@]3(CCC(=O)[C@@H]32)[C@@H](C)[C@@H]1O.Cl.Cl (stereo partly specified) | 0.063 | 0.5 | 0.8 | 0.25 | 0.032 | 0.25 | 0.5 | 4 | 0.063
